Tests used:
5HT-Transporter = biological target: T1, 5HT-Transporter (Homo sapiens, UniProt P31645); test: Binding experiment for the 5HT-transporter ([3H]paroxetine, human platelet membranes); settings: [3H]paroxetine 0.5 nM, read-out: h-5HTT pIC50 (converted)
T1 construct: Human platelet membranes (Oceanix Biosciences Corporation, Hanover, Md., USA) were thawed; tissue Oceanix Biosciences Corporation, Hanover, Md., USA; host or cells: human platelet membranes
Outline: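 Competition binding of [3H]paroxetine to human platelet membranes in Tris-HCl 50 mM, 120 mM NaCl, 5 mM KCl, with filtration and scintillation counting.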

hα2C receptor = biological target: T2, hα2C receptor (Homo sapiens, UniProt P18825); test: Radioligand binding experiment for α2C-adrenoceptor ([3H]raulwolscine, CHO cell membranes); settings: [3H]raulwolscine binding, read-out: h-α2C pIC50 (converted)
T2 construct: expressed in transfected cells; host or cells: CHO cells, stably transfected; membrane preparation
T2 sequence (P18825 1-462): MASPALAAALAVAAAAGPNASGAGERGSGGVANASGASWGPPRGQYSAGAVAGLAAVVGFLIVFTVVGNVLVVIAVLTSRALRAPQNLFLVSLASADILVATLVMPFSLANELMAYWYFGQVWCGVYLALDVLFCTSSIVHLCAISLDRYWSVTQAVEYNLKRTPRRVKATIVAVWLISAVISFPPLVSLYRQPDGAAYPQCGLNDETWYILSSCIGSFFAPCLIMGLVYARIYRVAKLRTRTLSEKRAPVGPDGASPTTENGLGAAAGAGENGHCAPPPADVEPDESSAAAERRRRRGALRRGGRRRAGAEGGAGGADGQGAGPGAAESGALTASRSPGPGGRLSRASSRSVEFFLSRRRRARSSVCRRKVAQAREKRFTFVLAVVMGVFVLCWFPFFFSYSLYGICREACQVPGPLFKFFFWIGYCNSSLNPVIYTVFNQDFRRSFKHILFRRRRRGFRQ

hα2A receptor = biological target: T3, hα2A receptor (Homo sapiens, UniProt P08913); test: Radioligand binding experiment for α2A-adrenoceptor ([3H]raulwolscine, CHO cell membranes); settings: [3H]raulwolscine binding, read-out: h-α2A pIC50 (converted)
T3 construct: expressed in transfected cells; host or cells: CHO cells, stably transfected; membrane preparation
T3 sequence (P08913 1-465): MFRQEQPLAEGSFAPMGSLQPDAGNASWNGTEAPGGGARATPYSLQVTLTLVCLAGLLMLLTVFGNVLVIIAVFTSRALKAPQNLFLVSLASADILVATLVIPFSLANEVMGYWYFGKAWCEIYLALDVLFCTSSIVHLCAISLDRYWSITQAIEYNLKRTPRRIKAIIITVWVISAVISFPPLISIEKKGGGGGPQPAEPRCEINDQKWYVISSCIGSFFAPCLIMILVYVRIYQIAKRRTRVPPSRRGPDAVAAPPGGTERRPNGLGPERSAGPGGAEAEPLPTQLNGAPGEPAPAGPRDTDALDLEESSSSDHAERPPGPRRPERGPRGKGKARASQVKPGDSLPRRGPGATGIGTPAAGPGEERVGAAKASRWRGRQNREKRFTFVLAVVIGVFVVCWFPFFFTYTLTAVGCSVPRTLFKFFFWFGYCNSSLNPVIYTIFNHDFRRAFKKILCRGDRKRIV

T1 sequence (P31645 whole entry): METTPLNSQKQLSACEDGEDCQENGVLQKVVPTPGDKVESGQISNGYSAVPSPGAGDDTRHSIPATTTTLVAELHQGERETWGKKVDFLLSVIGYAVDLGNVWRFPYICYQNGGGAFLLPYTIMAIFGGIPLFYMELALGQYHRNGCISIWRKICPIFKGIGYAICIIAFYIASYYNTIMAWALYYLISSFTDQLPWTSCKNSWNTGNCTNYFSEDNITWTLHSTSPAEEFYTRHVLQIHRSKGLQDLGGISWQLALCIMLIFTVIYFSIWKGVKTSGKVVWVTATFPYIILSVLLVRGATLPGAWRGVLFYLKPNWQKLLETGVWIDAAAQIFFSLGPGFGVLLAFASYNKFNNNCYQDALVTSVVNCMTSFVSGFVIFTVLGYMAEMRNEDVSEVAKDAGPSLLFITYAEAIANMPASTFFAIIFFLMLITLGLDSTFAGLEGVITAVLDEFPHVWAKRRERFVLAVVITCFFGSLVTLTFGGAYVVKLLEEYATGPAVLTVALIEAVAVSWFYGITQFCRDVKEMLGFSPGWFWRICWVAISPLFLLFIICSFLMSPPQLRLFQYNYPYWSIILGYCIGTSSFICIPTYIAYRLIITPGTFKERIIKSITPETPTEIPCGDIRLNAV

| SMILES | IC50 (5HT-Transporter) | IC50 (hα2C receptor) | IC50 (hα2A receptor) |
| --- | --- | --- | --- |
| CCOC(=O)CCCCn1ccnc(NC2CCN(C/C(C)=C/c3ccccc3)CC2)c1=O [3-17] | 794 nM | 15.8 nM | 126 nM |
| C/C(=C\c1ccccc1)CN1CCC(Nc2nccn(CCOc3ccccc3)c2=O)CC1 [3-18] | 158 nM | 31.6 nM | 126 nM |
| C/C(=C\c1ccccc1)CN1CCC(Nc2nccn(CCCOc3ccccc3)c2=O)CC1 [3-19] | 200 nM | 20 nM | 63.1 nM |
| C/C(=C\c1ccccc1)CN1CCC(Nc2nccn(CC(=O)OCc3ccccc3)c2=O)CC1 [3-20] | 3980 nM | 15.8 nM | 100 nM |
| COCCOCCn1ccnc(NC2CCN(C/C(C)=C/c3ccccc3)CC2)c1=O [3-21] | 3980 nM | 39.8 nM | 316 nM |
| CSCCn1ccnc(NC2CCN(C/C(C)=C/c3ccccc3)CC2)c1=O [4-1] | 3160 nM | 20 nM | 39.8 nM |
| CSc1ccc(-n2ccnc(NC3CCN(C/C(C)=C/c4ccccc4)CC3)c2=O)cc1 [4-2] | 158 nM | 6.31 nM | 12.6 nM |
| C/C(=C\c1ccccc1)CN1CCC(Nc2nccn(-c3ccccc3)c2=O)CC1 [5-1] | 1260 nM | 5.01 nM | 31.6 nM |
| C/C(=C\c1ccccc1)CN1CCC(Nc2nccn(-c3ccc(F)cc3)c2=O)CC1 [5-2] | 398 nM | 10 nM | 31.6 nM |
| C/C(=C\c1ccccc1)CN1CCC(Nc2nccn(-c3ccc(C#N)cc3)c2=O)CC1 [5-3] | 1000 nM | 10 nM | 50.1 nM |
| CCc1ccc(-n2ccnc(NC3CCN(C/C(C)=C/c4ccccc4)CC3)c2=O)cc1 [5-4] | 398 nM | 12.6 nM | 39.8 nM |
| C/C(=C\c1ccccc1)CN1CCC(Nc2nccn(-c3ccc(C=O)cc3)c2=O)CC1 [5-6] | 2000 nM | 6.31 nM | 39.8 nM |
| CC(=O)c1ccc(-n2ccnc(NC3CCN(C/C(C)=C/c4ccccc4)CC3)c2=O)cc1 [5-7] | 631 nM | 10 nM | 25.1 nM |
| C/C(=C\c1ccccc1)CN1CCC(Nc2nccn(Cc3ccccc3)c2=O)CC1 [5-8] | 1580 nM | 50.1 nM | 200 nM |
| C/C(=C\c1ccccc1)CN1CCC(Nc2nccn(Cc3ccc(C)cc3)c2=O)CC1 [5-9] | 1000 nM | 50.1 nM | 158 nM |
| C/C(=C\c1ccccc1)CN1CCC(Nc2nccn(Cc3ccccc3C)c2=O)CC1 [5-10] | 398 nM | 25.1 nM | 79.4 nM |
| C/C(=C\c1ccccc1)CN1CCC(Nc2nccn(Cc3ccccc3F)c2=O)CC1 [5-11] | 501 nM | 31.6 nM | 158 nM |
| C/C(=C\c1ccccc1)CN1CCC(Nc2nccn(Cc3cccc(F)c3)c2=O)CC1 [5-12] | 501 nM | 25.1 nM | 100 nM |
| C/C(=C\c1ccccc1)CN1CCC(Nc2nccn(Cc3ccc(F)cc3)c2=O)CC1 [5-13] | 1260 nM | 63.1 nM | 158 nM |
| C/C(=C\c1ccccc1)CN1CCC(Nc2nccn(Cc3ccccc3Br)c2=O)CC1 [5-14] | 200 nM | 12.6 nM | 50.1 nM |
| C/C(=C\c1ccccc1)CN1CCC(Nc2nccn(Cc3cccc(Br)c3)c2=O)CC1 [5-15] | 398 nM | 25.1 nM | 79.4 nM |
| C/C(=C\c1ccccc1)CN1CCC(Nc2nccn(Cc3ccc(Br)cc3)c2=O)CC1 [5-16] | 501 nM | 50.1 nM | 126 nM |
| C/C(=C\c1ccccc1)CN1CCC(Nc2nccn(Cc3ccccc3Cl)c2=O)CC1 [5-17] | 251 nM | 20 nM | 63.1 nM |
| C/C(=C\c1ccccc1)CN1CCC(Nc2nccn(Cc3cccc(Cl)c3)c2=O)CC1 [5-18] | 631 nM | 39.8 nM | 126 nM |
| C/C(=C\c1ccccc1)CN1CCC(Nc2nccn(Cc3ccccc3C#N)c2=O)CC1 [5-19] | 398 nM | 20 nM | 100 nM |

| SMILES | IC50 (5HT-Transporter) | IC50 (hα2C receptor) | IC50 (hα2A receptor) |
| --- | --- | --- | --- |
| C/C(=C\c1ccccc1)CN1CCC(Nc2nccn(Cc3ccc(C#N)cc3)c2=O)CC1 [5-20] | 5010 nM | 100 nM | 501 nM |
| C/C(=C\c1ccccc1)CN1CCC(Nc2nccn(Cc3ccccc3C(F)(F)F)c2=O)CC1 [5-21] | 398 nM | 25.1 nM | 158 nM |
| C/C(=C\c1ccccc1)CN1CCC(Nc2nccn(Cc3cccc(C(F)(F)F)c3)c2=O)CC1 [5-22] | 794 nM | 50.1 nM | 126 nM |
| C/C(=C\c1ccccc1)CN1CCC(Nc2nccn(Cc3ccc(C(F)(F)F)cc3)c2=O)CC1 [5-23] | 794 nM | 79.4 nM | 200 nM |
| C/C(=C\c1ccccc1)CN1CCC(Nc2nccn(Cc3ccc(S(C)(=O)=O)cc3)c2=O)CC1 [5-26] | 1260 nM | 25.1 nM | 126 nM |
| C/C(=C\c1ccccc1)CN1CCC(Nc2nccn(CCc3ccccc3)c2=O)CC1 [5-27] | 398 nM | 15.8 nM | 100 nM |
| C/C(=C\c1ccccc1)CN1CCC(Nc2nccn(C/C=C/c3ccccc3)c2=O)CC1 [5-28] | 501 nM | 63.1 nM | 158 nM |
| C/C(=C\c1ccccc1)CN1CCC(Nc2nccn(CC(=O)c3ccccc3)c2=O)CC1 [5-29] | 794 nM | 10 nM | 15.8 nM |
| C/C(=C\c1ccccc1)CN1CCC(Nc2nccn(-c3ccc(-c4ccccc4)cc3)c2=O)CC1 [5-30] | 398 nM | 7.94 nM | 25.1 nM |
| C/C(=C\c1ccccc1)CN1CCC(Nc2nccn(Cc3ccccc3-c3ccccc3)c2=O)CC1 [5-31] | 200 nM | 20 nM | 100 nM |
| C/C(=C\c1ccccc1)CN1CCC(Nc2nccn(Cc3ccc(-c4ccccc4)cc3)c2=O)CC1 [5-32] | 316 nM | 126 nM | 316 nM |
| C/C(=C\c1ccccc1)CN1CCC(Nc2nccn(CC(=O)c3cccc(-c4ccccc4)c3)c2=O)CC1 [5-33] | 1260 nM | 100 nM | 79.4 nM |
| C/C(=C\c1ccccc1)CN1CCC(Nc2nccn(Cc3cccc4ccccc34)c2=O)CC1 [5-34] | 398 nM | 25.1 nM | 100 nM |
| C/C(=C\c1ccccc1)CN1CCC(Nc2nccn(Cc3ccc4ccccc4c3)c2=O)CC1 [5-35] | 398 nM | 39.8 nM | 63.1 nM |
| C/C(=C\c1ccccc1)CN1CCC(Nc2nccn(CC3CCCCO3)c2=O)CC1 (stereo not drawn) [6-1] | 1000 nM | 20 nM | 126 nM |
| C/C(=C\c1ccccc1)CN1CCC(Nc2nccn(Cc3ccco3)c2=O)CC1 [6-2] | 1260 nM | 25.1 nM | 126 nM |
| C/C(=C\c1ccccc1)CN1CCC(Nc2nccn(-c3nccs3)c2=O)CC1 [6-5] | 316 nM | 7.94 nM | 50.1 nM |
| C/C(=C\c1ccccc1)CN1CCC(Nc2nccn(Cc3csc(C)n3)c2=O)CC1 [6-6] | 3160 nM | 20 nM | 126 nM |
| C/C(=C\c1ccccc1)CN1CCC(Nc2nccn(Cc3csc(C)n3)c2=O)CC1 [6-7] | 2000 nM | 39.8 nM | 251 nM |
| C/C(=C\c1ccccc1)CN1CCC(Nc2nccn(Cc3cnc(C)s3)c2=O)CC1 [6-8] | 3980 nM | 25.1 nM | 158 nM |
| C/C(=C\c1ccccc1)CN1CCC(Nc2nccn(-c3cccnc3)c2=O)CC1 [6-11] | 3980 nM | 25.1 nM | 251 nM |
| C/C(=C\c1ccccc1)CN1CCC(Nc2nccn(-c3ccncc3)c2=O)CC1 [6-12] | 1580 nM | 7.94 nM | 50.1 nM |
| C/C(=C\c1ccccc1)CN1CCC(Nc2nccn(Cc3ccccn3)c2=O)CC1 [6-13] | 3980 nM | 31.6 nM | 200 nM |
| C/C(=C\c1ccccc1)CN1CCC(Nc2nccn(Cc3ccncc3)c2=O)CC1 [6-14] | 2510 nM | 39.8 nM | 158 nM |
| C/C(=C\c1ccccc1)CN1CCC(Nc2nccn(CC(=O)c3ccc4c(c3)NC(=O)CO4)c2=O)CC1 [6-15] | 1000 nM | 20 nM | 15.8 nM |
